Results on 5 molecules are retold here after article PMC6130680, “In vitro and in vivo antidiabetic potential of extracts and a furostanol saponin from Balanites aegyptiaca” (Pharmaceutical Biology, 2017).

The target of series [1] is α-Glucosidase enzyme from Brewer's yeast (EC 3.2.1.20). Kind of series: α-glucosidase (AG) inhibition assay. As to conditions: mean ± standard error; substrate p-NPG; a dash for a tested fraction or compound means no AG activity. The series is classed as biochemical. An excerpt:
(§1) The positive control, acarbose, was purchased from Bayer Pharmaceuticals Pty, Ltd. (Wayne, NJ). Human recombinant aldose reductase and DL-glyceraldehyde were purchased from Wako Pure Chemical Industries, Ltd. (Osaka, Japan). Gliclazide was obtained from Servier Canada (Laval, QC, Canada). Pre-coated silica plates 60 GF254 (20 × 20 cm) (Fluka, Steinheim, Germany) were used for thin-layer chromatography (TLC). Silica gel H (Merck, Darmstadt, Germany) and Lichroprep RP-18 silica gel (15–25 μm, Merck, Darmstadt, Germany) were used for vacuum liquid chromatography (VLC). Silica gel 60 (70–230 mesh ASTM, Fluka, Steinheim, Germany), Diaion HP 20 (Sigma-Aldrich, St. Louis, MO), and Sephadex LH-20 (Sigma-Aldrich, Steinheim, Sweden) were used for column chromatography (CC). Spots were visualized by spraying with p-anisaldehyde/sulphuric acid.
(§2) AG and AR inhibitory activities of MeEx, ClFr, BuFr, AqFr, as well as the Diaion fractions D1–D6 were tested. AG inhibition was measured spectrophotometrically in a 96-well microplate reader using a procedure reported by Li et al. ([2009]). Acarbose was used as a positive control. The AR (EC 1.1.1.21) inhibitory activity was measured according to the procedure previously reported (Nishimura et al. [1991]). The experiments were repeated three times, and the IC50 values were calculated and expressed as mean ± standard error.

Series [2] concerns the target T1, Human recombinant aldose reductase (Homo sapiens, UniProt P15121).
T1 construct: purchased Wako Pure Chemical Industries, Ltd. (Osaka, Japan)
Kind of series: aldose reductase (AR) inhibition assay. Type of series: biochemical. As to conditions: mean ± standard error.
Excerpt: as §1, §2

Series [3] concerns STZ-induced diabetic rats. Kind of series: in vivo antidiabetic activity in STZ-induced diabetic rats. On the set-up: species or system male albino rats (Wistar strain). The settings on record: for Glucose level: fasting serum; for Glucose level / C-peptide / Cholesterol level / Insulin / Triglycerides: mean ± SEM, n = 6; for C-peptide / Cholesterol level / Insulin / Triglycerides: serum. The method, then: (§3) Male albino rats (Wistar strain, 150–200 g) and male mature albino mice of 20–25 g were obtained from the animal house colony of the National Research Center, Egypt. The experimental protocol followed the Institutional Animal Ethical Committee of the National Research Centre. The acute toxicity studies were performed on the mice. […] The animals survived and then four additional animals were tested sequentially so that a total of five animals were tested.
DM was induced by a single i.p. injection of STZ (55 mg/kg) in rats (Brosky and Logothetopoulos [1969]). Only rats with serum glucose levels of more than 250 mg/dL were selected and considered diabetic animals. MeEx, its active fraction (BuFr) and the active compound 3 were tested in the STZ-induced diabetic rats at two dose levels (100 and 200 mg/kg.b/wt) for 2 weeks. At the end of the 2-weeks treatment period, the animals were kept for an overnight fasting and the blood samples were collected from the retroorbital plexus and allowed to clot for 30 min at room temperature. These blood samples were centrifuged at 5000 rpm for 20 min and the serum was separated and stored at −80 °C until analysis was done. Serum samples were analyzed spectrophotometrically for serum glucose, triglycerides and cholesterol. Serum glucose was estimated by glucose oxidase–peroxidase method test agent kit (Stanbio, Boerne, TX) (Cheyne and Gilmore [1973]). Triglycerides were estimated by enzymatic methods by using a diagnostic kit (Biodiagnostic, Cairo, Egypt) (Fossati and Prencipe [1982]). Total cholesterol was estimated by enzymatic methods by using a diagnostic kit (Biodiagnostic, Cairo, Egypt) (Allain et al. [1974]). Serum insulin was estimated by a […] using the ALPCO Insulin (Rat) ELISA kit (Judzewitsch et al. [1982]). Serum C-peptide was measured with a rat insulin enzyme-linked immune absorbent assay kit (C-Peptide EIA Kit, Sigma-Aldrich, St. Louis, MO). Results were expressed as mean ± SEM for biochemical estimations. The quantitative data were analyzed by ANOVA followed by Tukey multiple comparison tests. The Kruskal–Wallis test was used for the quantitative analysis of the histopathology score values. Results were considered to be significant at p < 0.05.

Another series deals with male mature albino mice. Kind of series: acute toxicity study in mice. Type of series: in vivo. The settings on record: ascending oral doses up to 2000 mg/kg, observed closely for 24 h and daily for 14 days. Here is the method:
as §3
The acute toxicities of the three samples (MeEx, BuFr and compound 3) were studied where the mice took ascending oral doses up to 2000 mg/kg of each sample. They were observed closely for 24 h and daily for 14 days, where no mortality was observed.

Setting [4] is: 200 mg/kg for 2 weeks, versus diabetic control.

Marks after values point to notes of the source that are not given here.

As for `C[C@H]1O[C@H](O[C@H]2[C@H](O)[C@@H](O)[C@@H](O[C@H]3[C@H](O)[C@@H](O)C(O)O[C@@H]3CO)O[C@@H]2CO)[C@H](O)[C@@H](O)[C@@H]1N[C@H]1C=C(CO)[C@@H](O)[C@H](O)[C@H]1O` (stereo partly shown) [Acarbose, acarbose, reference compound], the “AG inhibition IC50” value in series [1] was 24.00 ± 2.31 µg/mL.

The IC50 is the concentration that inhibits the measured activity by half. Take `CC[C@H](/C=C/C(C)C1CCC2C3CC=C4C[C@@H](O[C@@H]5O[C@H](CO)[C@@H](O)[C@H](O)[C@H]5O)CCC4(C)C3CCC12C)C(C)C` (stereo partly drawn) [Compound 1, stigmasterol-3-O-β-D-glucopyranoside]: in series [2], the “AR inhibition IC50” value is “inactive” and the IC50 was 49.7 µM.

Take `CC(O)C1C(O)CC2C3CC=C4CC(OC5OC(CO)C(O)C(O)C5O)CCC4(C)C3CCC21C` [Compound 2, pregn-5-ene-3β,16β,20(R)-triol 3-O-β-D-glucopyranoside]: in series [2], the “AR inhibition IC50” value was “inactive” and the IC50 was 24.6 µM.

Take `COC1(CC[C@@H](C)CO[C@@H]2O[C@H](CO)[C@@H](O)[C@H](O)[C@H]2O)OC2C[C@H]3[C@@H]4CC=C5C[C@@H](O[C@@H]6O[C@H](CO)[C@@H](O[C@@H]7O[C@H](CO)[C@@H](O)[C@H](O)[C@H]7O)[C@H](O)[C@H]6O[C@@H]6O[C@@H](C)[C@H](O)[C@@H](O)[C@H]6O)CC[C@]5(C)[C@H]4CC[C@]3(C)C2[C@@H]1C` (stereo partly drawn) [Compound 3, 26-(O-β-D-glucopyranosyl)-22-O-methylfurost-5-ene-3β,26-diol-3-O-β-D-glucopyranosyl-(1 → 4)-[α-L-rhamnopyranosyl-(1 → 2)]-β-D-glucopyranoside]: the “AG inhibition IC50” value in series [1] was determined as 03.12 ± 0.17 µg/mL. Besides, the IC50 in series [2] was 0.964 µM. For the same molecule, in series [3] (100 mg/kg for 2 weeks), the Glucose level is 207.4 ± 18.33^a mg/dL, the C-peptide was 1.42 ± 0.07^a ng/mL, the Cholesterol level was 139.2 ± 10.30 mg/dL and the Insulin is listed as 1.99 ± 0.04^a μIU/mL. The Triglycerides in series [3] (100 mg/kg for 2 weeks) turned out to be 112.2 ± 9.89 mg/dL. Besides, in series [3] (200 mg/kg for 2 weeks), the Glucose level was 122.2 ± 18.22^b mg/dL, the C-peptide was 2.04 ± 0.06^b ng/mL, the Cholesterol level is recorded as 115.6 ± 7.12^b mg/dL and the Insulin is reported as 3.17 ± 0.28^b μIU/mL. The Triglycerides in series [3] (200 mg/kg for 2 weeks) is listed as 113.5 ± 7.73 mg/dL. Also, in series [3] (setting [4]), the “increase in C-peptide level” value came to 65%, the “reduction in fasting blood/plasma glucose level” value came to 51.39% and the “reduction in total cholesterol level” value is given as 31.19%. The “reduction in total cholesterol level” value in series [3] (200 mg/kg for 2 weeks, versus diabetic control, listed as furostanol saponin 3) came out at 31.9%. Besides, the “mortality (acute toxicity)” value in the series with male mature albino mice is “no mortality”.

As to `Cc1ccc(S(=O)(=O)NC(=O)NN2CC3CCCC3C2)cc1` (stereo not shown) [Gliclazide, reference compound], in series [3] (10 mg/kg (standard drug)), the Glucose level was 93.09 ± 5.80^b mg/dL, the C-peptide was determined as 1.78 ± 0.11 ng/mL, the Cholesterol level is on record as 125.3 ± 5.98^b mg/dL and the Insulin is listed as 2.82 ± 0.18^a^,^b μIU/mL. The same molecule yielded a Triglycerides in series [3] (10 mg/kg (standard drug)) of 103.7 ± 9.73 mg/dL. For the same molecule, in series [3] (10 mg/kg (standard drug), versus diabetic control), the “reduction in cholesterol level” value stood at 25.42%.
